The text below walks through data of patent publication US20240197761A1, “FUCOSYLATION AND IMMUNE MODULATION IN CANCER” (H. LEE MOFFITT CANCER CENTER AND RESEARCH INSTITUTE, INC., priority 2021, published 2024).

Assay [1] relates to HLA-DRB1 in WM793 and 1205Lu cells. Kind of assay: Cell surface fucosylation and HLA-DRB1 (flow cytometry), HLA-DRB1 mRNA (qRT-PCR) and protein (IB) in melanoma cells. Format: cell-based, human. The conditions noted are these: 250 μM, 72 h. From the text:
FIGS. 18A-18F show N-linked fucosylation of HLA-DRB1 at N48 regulates its cell surface localization and is required for tumor suppression and increased TIL abundance. (a) (upper) Amino acid sequence alignments showing conservation of predicted N- and O-linked fucosylation sites in human HLA-DRB1 (N48 and T129) and mouse H2EB1 (N46 and T147). Structural modeling of the HLA-DRB1:HLA-DM (lower left) and CD4:HLA-DRB1:TCR (lower right) complexes. Potential glycosylation sites, N48 and T129, of HLA-DR1 beta chain are shown as sticks. CD4 (cyan), HLA-DRB1 (yellow), antigen peptide (magenta), and TCR (green)(lower right). (b) HLA-DRB1 peptide fragment identified by nano-LC/MS to be fucosylated on N48, with predicted HexNAc(4)Hex(3)Fuc(1) glycan structure shown above. (c) Lectin pull down (LPD) and IB analyses of EV and V5-tagged wild-type HLA-DRB1 (WT)-, HLA-DRB1 N48G (N48G)-, and HLA-DRB1 T129A (T129A)-expressing WM793 cells. (d) DMSO- or fucosyltransferase inhibitor (FUTi)-treated WM793 cells immunofluorescently stained for endogenous HLA-DRB1, KDEL (ER marker), and DAPI (20× magnification). (e) Flow cytometric analysis for relative cell surface fucosylation (upper) and cell surface HLA-DRB1 (upper middle), qRT-PCR analysis of relative HLA-DRB1 mRNA levels (lower middle), and IB analysis of HLA-DRB1 protein levels (lower) in WM793 and 1205Lu cells treated with DMSO (D), 250 μM FUTi (i), or 250 μM L-fuc (LF). (f) Volumetric growth curves for shNT (non-targeting shRNA)+EV (control SW1 tumors)(upper left) or shEB1 tumors reconstituted with EV (upper right), EB1 WT (lower left), or EB1 N46G (lower right) in C3H/HeN mice. Control (grey) or L-fucose supplemented water (red, 100 mM; ▾=initiated supplementation) was provided ad libitum. The tumor growth curves are means±SEM from ≥7 mice per group. *=p<0.05.
FIGS. 19A and 19B show nano-LC/MS spectral identification of fucosylated HLA-DRB1 peptide; and the effects of modulating fucosylation on HLA-DRB1 localization, total protein, and mRNA levels (a) nano-LC/MS/MS spectra showing fucosylated HLA-DRB1 peptide (arrow). (b) Flow cytometric analysis for relative cell surface fucosylation (upper) and cell surface HLA-DRB1 levels (upper middle), qRT-PCR analysis of relative HLA-DRB1 mRNA levels (lower middle), and IB analysis of HLA-DRB1 protein levels (lower) in indicated melanoma cell lines treated with DMSO (D), 250 μM FUTi (i), or 250 μM L-fuc (LF). *=p<0.05.
HLA-DRB1, and PD-L1: Indicated cells were treated for 72 h with DMSO, 250 μM fucosyltransferase inhibitor (FUTi) (Millipore Sigma (St. Louis, MO)), or 250 μM of L-fucose (Biosynth (Oak Terrace, IL)). After 72 h, cells were stained with 0.1 μM PKH26 (Millipore Sigma (St. Louis, MO)) prior to fixation in 4% formaldehyde solution. The cells were stained with anti-HLA-DRB1 and fluorescein AAL, or anti-human or anti-mouse PD-L1 overnight. The following day the cells were washed 3 times prior to adding AlexaFluor 594 donkey anti-rabbit. Cells were washed 3 times and then subject to flow cytometric analyses using a FACSCalibur (BD Biosciences (San Jose, CA)). Samples were analyzed using FlowJo analysis software (BD Biosciences (San Jose, CA)). Median values of DRB1 and AAL were normalized to PKH26 values and statistical analysis was performed using GraphPad Prism.
Cells were lysed on ice in RIPA lysis buffer (25 mM Tris-HCl pH 7.6, 150 mM NaCl, 5 mM EDTA, 1% NP-40 or 1% Triton X-100, 1% sodium deoxycholate, 0.1% SDS in diH20+protease and phosphatase inhibitors (ThermoFisher Scientific (Waltham, MA)), briefly sonicated, pelleted, and the resulting lysates were normalized by protein concentration using DC assay (BioRad Laboratories, (Hercules, CA)). The indicated samples were subjected to (12%) SDS-PAGE and immunoblot analysis using the indicated antibodies. Immunoblot imaging and analysis was performed using either an Odyssey FC scanner and ImageStudio (LiCor Biosciences, Lincoln, NE) or film. […]
On the technique in general: In flow cytometry, cells or beads pass a laser one at a time.

In a further assay the test system is TUBO (mouse BC). Briefly: TUBO breast cancer growth and TILs in immunocompetent mice, L-fuc dose escalation. Format: in vivo, Balb/C mice. To be noted: for TUBO tumor growth: immunocompetent Balb/C mice, L-fuc dose escalation (FIG. 3B).
For assay [2], the system named is mouse bone marrow-derived myeloid progenitors. Kind of assay: Myeloid phenotype profiling (M-MDSC, PMN-MDSC, moDC) of bone marrow-derived myeloid progenitors. Format: cell-based. The conditions noted are these: ± GM/G-CSF, average values from 12 mice. The protocol: Next, we investigated the effect of L-fuc on NO production of bone marrow derived MDSCs (FIGS. 8A and 8B). We observed that L-fuc abrogated NO production in all cases. […] We also wanted to look at how L-fuc treatment effected the expression of immunosuppression genes (FIG. 9). We assessed the expression of key MDSC biology-related genes at 24 or 72 hours after in initial L-fuc treatment of the cells. Generally, we observed reductions in ARGI, PARP, and CHOP expression. In contrast we observed upregulation of STAT1. To further assess how L-fuc/fucosylation affects myeloid phenotype, we modulated fucosylation using DMSO (control), 2-fluoro-fucose (2FIF, fucosylation inhibitor), or L-fuc in mouse bone marrow-derived myeloid progenitors treated ±GM/G-CSF (FIG. 10). We profiled changes In M-MDSC vs. PMN-IMDSC, as well as moDC, as we observed immunostimulatory activity. […] Shown are the average values irom 12 mice. We also observed that L-fucose alters TLR profiles of dendritic cells (FIG. 11).

For the compound `CC(=O)OC1O[C@@H](C)[C@@H](OC(C)=O)[C@@H](OC(C)=O)[C@@H]1F` (stereo partly drawn) [FUTi, 2F-peracteyl-fucose, reference compound], in assay [1], the “HLA-DRB1 mRNA and protein levels” value is listed as “remained unchanged”; the “cell surface HLA-DRB1” value was “decreased”; the cell surface fucosylation result was “decreased”.

Take `C[C@H](O)[C@@H](O)[C@@H](O)[C@H](O)C=O` [L-fucose]: the “fold-change in TIL subsets: MDSCs” value in the assay with TUBO (mouse BC) (500 vs. 0 mM L-fuc, TUBO tumors (FIG. 3D)) was 3.1 fold. For the same compound, in the assay with TUBO (mouse BC) (FIG. 3C), the “number of TILs/g tumor” value is “increased”. Further, the “fold increase in TIL subsets: CD4 T cells” value in the assay on TUBO (mouse BC) (following L-fucose administration (FIG. 3D)) turned out to be 3.1 fold. Also, the TUBO tumor growth result with TUBO (mouse BC) is on record as “dose dependent decrease”. For the same compound, the TUBO tumor growth result in the assay on TUBO (mouse BC) (listed as L-fuc) is reported as “suppresses”. Further, the “myeloid phenotype (M-MDSC vs. PMN-MDSC, moDC)” value in assay [2] is recorded as “enrichment of a monocytic phenotype, including increased moDCs”. Besides, in assay [1], the “HLA-DRB1 mRNA and protein levels” value was “remained unchanged”; the “cell surface HLA-DRB1” value is recorded as “increased”; the cell surface fucosylation entry is on record as “increased”.
